Measurements from the NIST ThermoML archive (doi:10.1016/j.fluid.2011.06.007).
Numbers after ± are expanded uncertainties.

Experiment: xn = mol fraction of the nth substance listed
Conditions: Liquid; for mass density: 298.15 K, 101.3 kPa, Vibrating tube method; for interfacial tension: 303.15 K, maximum differential bubble pressure

Molecule `CCC(C)(C)OC` [2-methoxy-2-methylbutane] + CCCCCC has a mass density (x2 = 0) of 765.8 ± 0.14 kg/m3, a mass density (x2 = 0.038) of 761.49 ± 0.27 kg/m3 and a mass density (x2 = 0.092) of 755.29 ± 0.27 kg/m3. It also gave a mass density (x2 = 0.145) of 749.34 ± 0.27 kg/m3, a mass density (x2 = 0.194) of 743.82 ± 0.27 kg/m3 and a mass density (x2 = 0.247) of 737.76 ± 0.27 kg/m3. For the same molecule, the mass density (x2 = 0.346) was 726.73 ± 0.27 kg/m3, the mass density (x2 = 0.443) was 715.93 ± 0.27 kg/m3 and the mass density (x2 = 0.497) was 709.95 ± 0.27 kg/m3. The mass density (x2 = 0.552) was 703.83 ± 0.27 kg/m3, the mass density (x2 = 0.597) was 698.92 ± 0.27 kg/m3 and the mass density (x2 = 0.644) was 693.78 ± 0.27 kg/m3. For the same molecule, the mass density (x2 = 0.696) was 688.15 ± 0.28 kg/m3, the mass density (x2 = 0.745) was 682.72 ± 0.28 kg/m3 and the mass density (x2 = 0.795) was 677.33 ± 0.28 kg/m3. The mass density (x2 = 0.852) was 671.14 ± 0.28 kg/m3, the mass density (x2 = 0.901) was 665.86 ± 0.28 kg/m3 and the mass density (x2 = 0.952) was 660.3 ± 0.28 kg/m3. For the same molecule, the interfacial tension (x2 = 0) was 22 ± 0.2 mN/m, the interfacial tension (x2 = 0.051) was 21.6 ± 0.2 mN/m and the interfacial tension (x2 = 0.1) was 21.06 ± 0.2 mN/m. For the same molecule, the interfacial tension (x2 = 0.209) was 20.64 ± 0.2 mN/m, the interfacial tension (x2 = 0.305) was 20.12 ± 0.2 mN/m and the interfacial tension (x2 = 0.399) was 19.8 ± 0.2 mN/m. The interfacial tension (x2 = 0.506) was 19.12 ± 0.2 mN/m, the interfacial tension (x2 = 0.611) was 18.71 ± 0.2 mN/m and the interfacial tension (x2 = 0.714) was 18.34 ± 0.2 mN/m. It also gave an interfacial tension (x2 = 0.813) of 18.02 ± 0.2 mN/m, an interfacial tension (x2 = 0.914) of 17.66 ± 0.2 mN/m and an interfacial tension (x2 = 0.96) of 17.55 ± 0.2 mN/m.
For `CCCCCC` [hexane] + CCC(C)(C)OC, the mass density (x1 = 1) was 655.19 ± 0.18 kg/m3 and the interfacial tension (x1 = 1) was 17.4 ± 0.2 mN/m.
